Key:
smallflower flatsedge = test: Test B flood test smallflower flatsedge; assay type: in vivo, Cyperus difformis
How it was run: (§1)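 Each value is a visual injury score relative to controls, with 10 meaning complete control and 0 no effect. Evaluation took place twelve to sixteen days after the 2-leaf-stage plants were treated and kept in the greenhouse.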

corn = test: Test B pre/postemergence corn; assay type: in vivo, Zea mays
How it was run: (§2)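 Herbicidal effect was estimated by eye on a ten-point control scale after plants spent twelve to sixteen days in a greenhouse following soil or foliar treatment. Foliar sprays targeted plants at one to four leaves; all doses were formulated in a non-phytotoxic solvent with surfactant.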

bamyardgrass = test: Test B flood test barnyardgrass; assay type: in vivo, Echinochloa crus-galli; conditions: for Plant response rating, Barnyardgrass: scale 0 to 10, 0 is no effect, 10 is complete control; for Barnyardgrass plant response rating: scale of 0 to 10 where 0 is no effect and 10 is complete control
How it was run: as §1

bedstraw = test: Test B pre/postemergence bedstraw; assay type: in vivo, Galium aparine; conditions: Postemergence; for Plant response rating, Bedstraw: scale 0 to 10, 0 is no effect, 10 is complete control; for Bedstraw plant response rating: scale of 0 to 10 where 0 is no effect and 10 is complete control
How it was run: as §2

giant foxtail = test: Test B pre/postemergence giant foxtail; assay type: in vivo, Setaria faberii
How it was run: as §2

blackgrass = test: Test B pre/postemergence blackgrass; assay type: in vivo, Alopecurus myosuroides
How it was run: as §2

sugar beet = test: Test B pre/postemergence sugar beet; assay type: in vivo, Beta vulgaris
How it was run: as §2

wild oat = test: Test B pre/postemergence wild oat; assay type: in vivo, Avena fatua
How it was run: as §2

pigweed = test: Test B pre/postemergence pigweed; assay type: in vivo, Amaranthus retroflexus
How it was run: as §2

rice = test: Test B flood test rice; assay type: in vivo, Oryza sativa
How it was run: as §1

surinam grass = test: Test B pre/postemergence surinam grass; assay type: in vivo, Brachiaria decumbens
How it was run: as §2

cocklebur = test: Test B pre/postemergence cocklebur; assay type: in vivo, Xanthium strumarium
How it was run: as §2

soybean = test: Test B pre/postemergence soybean; assay type: in vivo, Glycine max
How it was run: as §2

morningglory = test: Test B pre/postemergence morningglory; assay type: in vivo, Ipomoea hederacea
How it was run: as §2

crabgrass = test: Test B pre/postemergence crabgrass; assay type: in vivo, Digitaria sanguinalis
How it was run: as §2

velvetleaf = test: Test B pre/postemergence velvetleaf; assay type: in vivo, Abutilon theophrasti
How it was run: as §2

duck salad = test: Test B flood test duck salad; assay type: in vivo, Heteranthera limosa; conditions: for Plant response rating, Ducksalad: scale 0 to 10, 0 is no effect, 10 is complete control; for Ducksalad plant response rating: scale of 0 to 10 where 0 is no effect and 10 is complete control
How it was run: as §1

rape = test: Test B pre/postemergence rape; assay type: in vivo, Brassica napus
How it was run: as §2

purple nutsedge = test: Test B pre/postemergence purple nutsedge; assay type: in vivo, Cyperus rotundus
How it was run: as §2

wheat = test: Test B pre/postemergence wheat; assay type: in vivo, Triticum aestivum
How it was run: as §2

[1] = Postemergence section (flood test species), Rate 500 g/ha, scale of 0 to 10 where 0 is no effect and 10 is complete control
[2] = flood test species, listed under Postemergence, Rate 250 g/ha, scale 0 to 10, 0 is no effect, 10 is complete control
[3] = Postemergence, Rate 125 g/ha, scale 0 to 10, 0 is no effect, 10 is complete control
[4] = Postemergence, Rate 250 g/ha, scale 0 to 10, 0 is no effect, 10 is complete control
[5] = Postemergence, Rate 500 g/ha, scale of 0 to 10 where 0 is no effect and 10 is complete control
[6] = Preemergence, Rate 62 g/ha, scale 0 to 10 (0 no effect, 10 complete control)
[7] = Preemergence, Rate 125 g/ha, scale of 0 to 10 where 0 is no effect and 10 is complete control
[8] = Preemergence, Rate 250 g/ha, scale 0 to 10, 0 is no effect, 10 is complete control
[9] = Preemergence, Rate 500 g/ha, scale 0 to 10, 0 is no effect, 10 is complete control
[10] = Rate 62 g/ha, Postemergence, scale of 0 to 10 where 0 is no effect and 10 is complete control
[11] = Postemergence (flood test), Rate 125 g/ha
[12] = Postemergence section (flood test species), Rate 500 g/ha
[13] = Rate 62 g/ha, Postemergence (flood test species)
[14] = flood test species, listed under Postemergence, Rate 250 g/ha
[15] = Preemergence, Rate 250 g/ha, scale of 0 to 10 where 0 is no effect and 10 is complete control

CC(C)Cn1c(=O)on(C(=O)N(c2ccc(Cl)cc2)C(C)C)c1=O [Compound 417]
S. Flatsedge plant response rating (smallflower flatsedge; [1]): 9
Plant response rating, S. Flatsedge (smallflower flatsedge; [2]): 9
Plant response rating, Corn (corn; [3]): 0
Plant response rating, Corn (corn; [4]): 0
Corn plant response rating (corn; [5]): 0
Plant response rating, Corn (corn; [6]): 0
Plant response rating, Corn (corn; [7]): 0
Corn plant response rating (corn; [8]): 0
Corn plant response rating (corn; [9]): 0
Corn plant response rating (corn; [10]): 0
Plant response rating, Barnyardgrass (bamyardgrass; [11]): 0
Barnyardgrass plant response rating (bamyardgrass; [12]): 8
Barnyardgrass plant response rating (bamyardgrass; [13]): 0
Plant response rating, Barnyardgrass (bamyardgrass; [14]): 0
Plant response rating, Bedstraw (bedstraw; Rate 125 g/ha): 0
Plant response rating, Bedstraw (bedstraw; Rate 250 g/ha): 0
Bedstraw plant response rating (bedstraw; Rate 500 g/ha): 6
Bedstraw plant response rating (bedstraw; Rate 62 g/ha): 0
Plant response rating, Giant foxtail (giant foxtail; [3]): 0
Plant response rating, Giant foxtail (giant foxtail; [4]): 1
Giant foxtail plant response rating (giant foxtail; [5]): 8
Plant response rating, Giant foxtail (giant foxtail; [6]): 4
Plant response rating, Giant foxtail (giant foxtail; [7]): 9
Giant foxtail plant response rating (giant foxtail; [8]): 10
Giant foxtail plant response rating (giant foxtail; [9]): 10
Giant foxtail plant response rating (giant foxtail; [10]): 0
Plant response rating, Blackgrass (blackgrass; [3]): 0
Plant response rating, Blackgrass (blackgrass; [4]): 0
Blackgrass plant response rating (blackgrass; [5]): 0
Plant response rating, Blackgrass (blackgrass; [6]): 3
Blackgrass plant response rating (blackgrass; [15]): 7
Blackgrass plant response rating (blackgrass; [9]): 9
Blackgrass plant response rating (blackgrass; [10]): 0
Plant response rating, Sugarbeets (sugar beet; [4]): 0
Sugarbeets plant response rating (sugar beet; [5]): 6
Plant response rating, Sugarbeets (sugar beet; [6]): 0
Plant response rating, Sugarbeets (sugar beet; [7]): 0
Sugarbeets plant response rating (sugar beet; [8]): 2
Sugarbeets plant response rating (sugar beet; [9]): 6
Wild oats plant response rating (wild oat; [5]): 0
Plant response rating, Wild oats (wild oat; [6]): 0
Plant response rating, Wild oats (wild oat; [7]): 0
Wild oats plant response rating (wild oat; [8]): 2
Wild oats plant response rating (wild oat; [9]): 4
Plant response rating, Redroot pigweed (pigweed; [4]): 0
Redroot pigweed plant response rating (pigweed; [5]): 3
Plant response rating, Redroot pigweed (pigweed; [6]): 0
Plant response rating, Redroot pigweed (pigweed; [7]): 0
Redroot pigweed plant response rating (pigweed; [8]): 4
Redroot pigweed plant response rating (pigweed; [9]): 10
Rice plant response rating (rice; [1]): 0
Plant response rating, Rice (rice; [2]): 0
Plant response rating, B. signalgrass (surinam grass; [3]): 0
Plant response rating, B. signalgrass (surinam grass; [4]): 0
B. signalgrass plant response rating (surinam grass; [5]): 0
Plant response rating, B. signalgrass (surinam grass; [6]): 2
Plant response rating, B. signalgrass (surinam grass; [7]): 3
B. signalgrass plant response rating (surinam grass; [15]): 7
B. signalgrass plant response rating (surinam grass; Preemergence, Rate 500 g/ha, scale of 0 to 10 where 0 is no effect and 10 is complete control): 7
B. signalgrass plant response rating (surinam grass; [10]): 0
Plant response rating, Cocklebur (cocklebur; [3]): 0
Plant response rating, Cocklebur (cocklebur; [4]): 0
Cocklebur plant response rating (cocklebur; [5]): 0
Plant response rating, Cocklebur (cocklebur; [6]): 0
Plant response rating, Cocklebur (cocklebur; [7]): 0
Cocklebur plant response rating (cocklebur; [8]): 0
Cocklebur plant response rating (cocklebur; [9]): 0
Cocklebur plant response rating (cocklebur; [10]): 0
Plant response rating, Soybean (soybean; [4]): 4
Soybean plant response rating (soybean; [5]): 6
Plant response rating, Soybean (soybean; [6]): 0
Plant response rating, Soybean (soybean; [7]): 0
Soybean plant response rating (soybean; [8]): 0
Soybean plant response rating (soybean; [9]): 0
Plant response rating, Morningglory (morningglory; [4]): 9
Morningglory plant response rating (morningglory; [5]): 9
Plant response rating, Morningglory (morningglory; [6]): 0
Plant response rating, Morningglory (morningglory; [7]): 0
Morningglory plant response rating (morningglory; [8]): 0
Morningglory plant response rating (morningglory; [9]): 0
Plant response rating, Crabgrass (crabgrass; [3]): 0
Plant response rating, Crabgrass (crabgrass; [4]): 2
Crabgrass plant response rating (crabgrass; [5]): 2
Plant response rating, Crabgrass (crabgrass; [6]): 6
Plant response rating, Crabgrass (crabgrass; [7]): 9
Crabgrass plant response rating (crabgrass; [8]): 9
Crabgrass plant response rating (crabgrass; [9]): 10
Crabgrass plant response rating (crabgrass; [10]): 0
Plant response rating, Velvetleaf (velvetleaf; [4]): 0
Velvetleaf plant response rating (velvetleaf; [5]): 0
Plant response rating, Velvetleaf (velvetleaf; [6]): 0
Plant response rating, Velvetleaf (velvetleaf; [7]): 0
Velvetleaf plant response rating (velvetleaf; [8]): 2
Velvetleaf plant response rating (velvetleaf; [9]): 6
Plant response rating, Ducksalad (duck salad; [11]): 0
Ducksalad plant response rating (duck salad; [12]): 3
Ducksalad plant response rating (duck salad; [13]): 0
Plant response rating, Ducksalad (duck salad; [14]): 2
Plant response rating, Rape (rape; [4]): 0
Rape plant response rating (rape; [5]): 2
Plant response rating, Rape (rape; [6]): 0
Plant response rating, Rape (rape; [7]): 0
Rape plant response rating (rape; [8]): 5
Rape plant response rating (rape; [9]): 6
Plant response rating, Nutsedge (purple nutsedge; [4]): 0
Nutsedge plant response rating (purple nutsedge; [5]): 0
Plant response rating, Nutsedge (purple nutsedge; [6]): 0
Plant response rating, Nutsedge (purple nutsedge; [7]): 0
Nutsedge plant response rating (purple nutsedge; [8]): 0
Nutsedge plant response rating (purple nutsedge; [9]): 0
Wheat plant response rating (wheat; [5]): 0
Plant response rating, Wheat (wheat; [6]): 0
Plant response rating, Wheat (wheat; [7]): 0
Wheat plant response rating (wheat; [8]): 0
Wheat plant response rating (wheat; [9]): 2

— US6737383B1, “Herbicidal oxadiazolidines” (priority 1999, dated 2004)
